target: T1, Renin (Homo sapiens, UniProt P00797); test: The compound was evaluated in vitro for inhibition of human plasma renin at pH 7.4.; assay type: cell-free
T1 sequence (P00797 whole entry): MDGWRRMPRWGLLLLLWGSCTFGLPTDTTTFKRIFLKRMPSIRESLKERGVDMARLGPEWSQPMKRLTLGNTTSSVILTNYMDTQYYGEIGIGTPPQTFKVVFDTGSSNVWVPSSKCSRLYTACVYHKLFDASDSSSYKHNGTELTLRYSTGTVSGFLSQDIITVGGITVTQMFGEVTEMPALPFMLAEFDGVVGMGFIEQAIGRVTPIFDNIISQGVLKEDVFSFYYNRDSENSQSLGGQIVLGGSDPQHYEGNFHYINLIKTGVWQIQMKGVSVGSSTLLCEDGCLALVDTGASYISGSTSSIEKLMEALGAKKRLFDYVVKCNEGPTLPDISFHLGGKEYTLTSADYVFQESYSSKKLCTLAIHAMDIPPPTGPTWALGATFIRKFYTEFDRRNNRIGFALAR

Row | Structure (SMILES) | IC50 [µM]
1 | CC(C)(C)OC(=O)N[C@@H](Cc1ccccc1)C(=O)N[C@H]1CNC(=O)CCCOC(=O)[C@H](O)[C@H](CC2CCCCC2)NC1=O | 9.2
2 | CC(C)(C)OC(=O)N[C@@H](Cc1ccccc1)C(=O)N[C@H]1CCC(=O)NCCCOC(=O)[C@H](O)[C@H](CC2CCCCC2)NC1=O | 7
3 | CC(C)(C)OC(=O)N[C@@H](Cc1ccccc1)C(=O)N[C@H]1CCC(=O)NCCC[C@@H](O)[C@H](O)[C@H](CC2CCCCC2)NC1=O | > 20
4 | CC(C)(C)OC(=O)N[C@@H](Cc1ccccc1)C(=O)N[C@H]1CCC(=O)NCCCC2(OCCO2)[C@H](O)[C@H](CC2CCCCC2)NC1=O | > 20
5 | CC(C)(C)OC(=O)N[C@@H](Cc1ccccc1)C(=O)N[C@H]1CCC(=O)NCCCC(=O)[C@H](O)[C@H](CC2CCCCC2)NC1=O | 14

The next compounds have a lower IC50 than those just listed; values first:

Row | IC50 [µM] | Structure (SMILES)
6 | 0.65 | CC(C)(C)OC(=O)N[C@@H](Cc1ccccc1)C(=O)N[C@H]1CCC(=O)NCCC[C@H](O)[C@H](O)[C@H](CC2CCCCC2)NC1=O
7 | 0.61 | CC(C)(C)OC(=O)N[C@@H](Cc1ccccc1)C(=O)N[C@H]1CCC(=O)NCCOC(=O)[C@H](O)[C@H](CC2CCCCC2)NC1=O
8 | 0.59 | CC(C)(C)OC(=O)N[C@@H](Cc1ccccc1)C(=O)N[C@H]1CNC(=O)CCCCOC(=O)[C@H](O)[C@H](CC2CCCCC2)NC1=O
